The record followed here is ChEMBL document CHEMBL6153031, “Impact of the hydrophilic-lipophilic balance of free-base and Zn(II) tricationic pyridiniumporphyrins and irradiation wavelength in PDT against the melanoma cell lines” (Eur J Med Chem, 2025).

A short description of series [1]: Cytotoxicity against human A-375 cells assessed as reduction in cell viability measured after 36 to 48 hrs by MTT assay. Format: toxicity, cell-based. In general terms: Formazan colour is commonly taken as a measure of viable cells.
Series [2] in a line: Phototoxicity against human MeWo cells assessed as reduction in cell viability incubated for 6 hrs followed by irradiation for 30 mins with light at wavelength of 606 nm and measured after 36 to 48 hrs by MTT assay. The class given is functional, cell-based. The conditions noted are these: light or radiation study.
A short description of series [3]: Phototoxicity against human MeWo cells assessed as reduction in cell proliferation at 1 uM incubated for 6 hrs followed by irradiation for 30 mins with light at wavelength of 643 nm and measured after 36 to 48 hrs by MTT assay. Particulars: light or radiation study, time 2550-3270 min; call rule not given here. The class given is functional.
Series [4] in a line: Cytotoxicity against human HDF cells assessed as reduction in cell viability incubated for 6 hrs followed by irradiation for 30 mins with light at wavelength of 606 nm and measured after 36 to 48 hrs by MTT assay. The class given is toxicity, cell-based.
A short description of series [5]: Cytotoxicity against human HDF cells assessed as reduction in cell viability measured after 36 to 48 hrs by MTT assay. The class given is toxicity, cell-based.
Series [6] is described as follows: Phototoxicity against human A-375 cells assessed as reduction in cell viability incubated for 6 hrs followed by irradiation for 30 mins with light at wavelength of 606 nm and measured after 36 to 48 hrs by MTT assay. The class given is functional, cell-based. Particulars: A-375, light or radiation study.
A short description of series [7]: Cytotoxicity against human MeWo cells assessed as reduction in cell viability measured after 36 to 48 hrs by MTT assay. Format: toxicity, cell-based.
Series [8] can be described thus: Phototoxicity against human A-375 cells assessed as reduction in cell viability incubated for 6 hrs followed by irradiation for 30 mins with light at wavelength of 643 nm and measured after 36 to 48 hrs by MTT assay. Format: functional, cell-based. The conditions noted are these: A-375, light or radiation study.
Series [9] in a line: Phototoxicity against human A-375 cells assessed as reduction in cell proliferation at 1 uM incubated for 6 hrs followed by irradiation for 30 mins with light at wavelength of 643 nm and measured after 36 to 48 hrs by MTT assay. Format: functional. The conditions noted are these: A-375, light or radiation study, time 2550-3270 min.
Series [10] can be described thus: Cytotoxicity against human HDF cells assessed as reduction in cell proliferation at 1 uM incubated for 6 hrs followed by irradiation for 30 mins with light at wavelength of 643 nm and measured after 36 to 48 hrs by MTT assay. Format: toxicity, cell-based. The conditions noted are these: time 2550-3270 min.
Series [11] is described as follows: Cytotoxicity against human HDF cells assessed as reduction in cell viability incubated for 6 hrs followed by irradiation for 30 mins with light at wavelength of 643 nm and measured after 36 to 48 hrs by MTT assay. Format: toxicity, cell-based.
The nature of series [12]: Phototoxicity against human MeWo cells assessed as reduction in cell viability incubated for 6 hrs followed by irradiation for 30 mins with light at wavelength of 643 nm and measured after 36 to 48 hrs by MTT assay. Format: functional, cell-based. The conditions noted are these: light or radiation study.
Series [13] is described as follows: Drug uptake in human MeWo cells at 1 uM measured at 37 degC after 6 hrs by fluorescence based analysis. Format: ADME, cell-based.
Series [14] can be described thus: Drug uptake in human HDF cells at 1 uM measured per 10^3 cells after 24 hrs by fluorescence based analysis. Format: ADME, cell-based.
Series [15] in a line: Drug uptake in human HDF cells at 1 uM measured at 37 degC after 6 hrs by fluorescence based analysis. The class given is ADME, cell-based.
The nature of series [16]: Drug uptake in human MeWo cells at 1 uM measured at 4 degC after 6 hrs by fluorescence based analysis. Format: ADME, cell-based.
Series [17] is described as follows: Drug uptake in human HDF cells at 1 uM measured at 4 degC after 6 hrs by fluorescence based analysis. Format: ADME, cell-based.
Series [18] can be described thus: Drug uptake in cytoplasmic organelles in human HDF cells at 5 uM incubated for 6 hrs by DIOC6(3) dye based fluorescence microscopy. Format: ADME, cell-based.
Series [19] can be described thus: Drug uptake in nucleus in human MeWo cells at 5 uM incubated for 6 hrs by DIOC6(3) dye based fluorescence microscopy. Format: ADME, cell-based.
Series [20] can be described thus: Drug uptake in human MeWo cells at 1 uM measured after 6 hrs by fluorescence based analysis. The class given is ADME, cell-based.
The nature of series [21]: Drug uptake in human A-375 cells at 1 uM measured after 6 hrs by fluorescence based analysis. Format: ADME, cell-based. The conditions noted are these: a-375, 6 h.
Series [22] can be described thus: Drug uptake in cytoplasmic organelles in human MeWo cells at 5 uM incubated for 6 hrs by DIOC6(3) dye based fluorescence microscopy. Format: ADME, cell-based.
Series [23] can be described thus: Drug uptake in nucleus in human HDF cells at 5 uM incubated for 6 hrs by DIOC6(3) dye based fluorescence microscopy. Format: ADME, cell-based.
Series [24] can be described thus: Drug uptake in human HDF cells at 1 uM measured after 6 hrs by fluorescence based analysis. The class given is ADME, cell-based.
Series [25] can be described thus: Phototoxicity against human A-375 cells assessed as cell proliferation rate at 1 uM incubated for 6 hrs followed by irradiation for 30 mins with light at wavelength of 606 nm and measured after 36 to 48 hrs by MTT assay. The class given is functional. Particulars: A-375, light or radiation study, time 2550-3270 min, read-out: Activity.
Series [26] in a line: Phototoxicity against human A-375 cells assessed as cell proliferation rate at 1 uM incubated for 6 hrs followed by irradiation for 30 mins with light at wavelength of 643 nm and measured after 36 to 48 hrs by MTT assay. Format: functional. Particulars: A-375, light or radiation study, time 2550-3270 min, read-out: Activity.

As for `CCCCCCCCCCCC(=O)Nc1ccc(-c2c3nc(c(-c4ccc[n+](C)c4)c4ccc([nH]4)c(-c4ccc[n+](C)c4)c4nc(c(-c5ccc[n+](C)c5)c5ccc2[nH]5)C=C4)C=C3)cc1`, the IC50 (as a rule, the concentration that inhibits the measured activity by half) is above 100 µM in [1]; 4.27 µM in series [2]; 6.26 µM in series [4]; above 100 µM in series [5]; 0.33 µM in series [6]; above 100 µM in series [7]. Besides, the figures for the IC50 in series [8], in [11] and in series [12] were 0.29 µM, 4.65 µM and 2.36 µM, respectively. For the same molecule, the results for the inhibition at 1 µM in series [3], in series [9] and in [10] were 40%, above 90% and below 20%, respectively.
Take `CCCCCCCCCCCCCCCC(=O)Nc1ccc(-c2c3nc(c(-c4ccc[n+](C)c4)c4ccc([nH]4)c(-c4ccc[n+](C)c4)c4nc(c(-c5ccc[n+](C)c5)c5ccc2[nH]5)C=C4)C=C3)cc1.[Cl-].[Cl-].[Cl-]`: the half-maximal inhibitory concentration (IC50) was above 100 µM in series [1]; 0.79 µM in series [2]; 1.48 µM in series [4]; above 100 µM in series [5]; 0.38 µM in [6]; above 100 µM in series [7]. In addition, the IC50 in series [8] came out at 0.1 µM; in series [11], 0.42 µM; in [12], 0.56 µM. Also, the results for the Drug uptake result in series [13], in series [14] and in series [15] were “Active”, ~ 26 nM and “Active”, respectively.
With `CC(=O)Nc1ccc(-c2c3nc(c(-c4ccc[n+](C)c4)c4ccc([nH]4)c(-c4ccc[n+](C)c4)c4nc(c(-c5ccc[n+](C)c5)c5ccc2[nH]5)C=C4)C=C3)cc1.[Cl-].[Cl-].[Cl-]`, the IC50 in series [1], in series [2], in series [4], in [5], in series [6] and in [7] was above 100 µM throughout. For the same molecule, the IC50 in series [8], in series [11] and in [12] was above 100 µM in each case. Further, the Drug uptake result in [16], in series [13], in series [15] and in [17] was “Active” each time.
`CCCCCCCC(=O)Nc1ccc(-c2c3nc(c(-c4ccc[n+](C)c4)c4ccc([nH]4)c(-c4ccc[n+](C)c4)c4nc(c(-c5ccc[n+](C)c5)c5ccc2[nH]5)C=C4)C=C3)cc1.[Cl-].[Cl-].[Cl-]`: the IC50 in [1] is above 100 µM; in [2] it was 18.9 µM; in series [4] it was 32 µM; in series [5], above 100 µM; in [6], 3.22 µM; in series [7] it was above 100 µM. Besides, the IC50 is 2.5 µM in series [8], 25.7 µM in series [11] and 8.31 µM in series [12]. For the same molecule, the Drug uptake result in [16], in [13], in series [15] and in [17] was “Active” throughout.
In the case of `CCCCCCCCCCCCCCCCCC(=O)Nc1ccc(-c2c3nc(c(-c4ccc[n+](C)c4)c4ccc([nH]4)c(-c4ccc[n+](C)c4)c4nc(c(-c5ccc[n+](C)c5)c5ccc2[nH]5)C=C4)C=C3)cc1.[Cl-].[Cl-].[Cl-]`, the IC50 in series [1] is above 100 µM; in series [2] it was 0.48 µM; in series [4] it was 0.67 µM; in series [5], above 100 µM; in series [6], 0.37 µM; in series [7] it was above 100 µM. Moreover, the IC50 in series [8] was found to be 0.09 µM; in [11], 0.32 µM; in [12], 0.35 µM. Besides, the Drug uptake result is given as “Active” in [18]; “Not_active” in series [19]; “Active” in series [20]; “Active” in series [21]; “Active” in series [13]; ~ 95 nM in [14]. Also, the Drug uptake entry in series [22] is on record as “Active”; in series [15], “Active”; in series [23], “Not_active”; in series [24], “Active”.
Regarding `CCCCCCCCCC(=O)Nc1ccc(-c2c3nc(c(-c4ccc[n+](C)c4)c4ccc([nH]4)c(-c4ccc[n+](C)c4)c4nc(c(-c5ccc[n+](C)c5)c5ccc2[nH]5)C=C4)C=C3)cc1.[Cl-].[Cl-].[Cl-]`, the IC50 in [1] was above 100 µM; in [2], 9.77 µM; in series [4], 32.4 µM; in series [5], above 100 µM; in series [6], 3.94 µM; in series [7], above 100 µM. Besides, the figures for the half-inhibitory concentration (IC50) in series [8], in series [11] and in [12] were 0.91 µM, 7.09 µM and 7.7 µM, respectively. Also, the Drug uptake result in series [18] is listed as “Active”; in [19], “Not_active”; in series [16], “Active”; in series [13] it was “Active”; in [22] it was “Active”; in series [15] it was “Active”. Also, the figures for the Drug uptake entry in series [17] and in series [23] were “Active” and “Not_active”, respectively. Also, the results for the growth at 1 µM in [25] and in [26] were above 80% and around 30%, respectively.
